Literature values, collected in PMC8453963 (Chemmedchem, 2021).
Marks after values point to notes of the source that are not given here.

Conditions: ref [53]

O=C([O-])CN(CCN(CC(=O)[O-])Cc1cc(CCC(=O)NCCCCCC(=O)NCCCC[C@H](NC(=O)N[C@@H](CCC(=O)O)C(=O)O)C(=O)O)ccc1[O-])Cc1cc(CCC(=O)O)ccc1[O-].[68Ga+3].[OH3+] [[^68Ga]Ga‐PSMA‐11]
log D oct/PBS: −2.91^[a]
